Measured values published in US20110054033A1, “METHODS OF USING ABSCISIC ACID FOR AMELIORATING HYPERTENSION AND VASCULAR INFLAMMATION” (Virginia Tech Intellectual Properties, Inc., priority 2009, published 2011).

How the values were obtained:
[1] = tested on: 15-lipoxygenase (15-LOX); test: Aortic gene expression by real-time RT-PCR: 15-LOX; format: in vivo, mice; conditions: day 84, ratio to β-actin
Experimental: FIG. 4 are photos and graphs showing aortas collected on day 84 of dietary intervention. Representative photomicrographs (100×) of aortic root specimens from (A) control and (B) ABA-fed mice. (C) Analysis of lumenal areas and (D) tunica media areas were performed with aortic cross-sections using Image Pro Plus software. (E) Aortic thickness was analyzed as a ratio of the intima to the media. Gene expression in the aorta of (F) endothelial nitric oxide synthase (eNOS) and (G) 15-lipoxygenase (15-LOX) were measured as a ratio to the house-keeping gene β-actin. Data were analyzed as a completely randomized design.
Total RNA was isolated from aortas using the RNA isolation Minikit (Qiagen) according to the manufacturer's instructions. Total RNA (1 μg) was used to generate a complementary DNA (cDNA) template using the iScript cDNA Synthesis Kit (Bio-Rad, Hercules, Calif.). […] Each gene amplicon was purified with the MiniElute PCR Purification Kit (Qiagen) and quantitated on an agarose gel by using a DNA mass ladder (Promega). […]
(§1) Complementary DNA (cDNA) concentrations for genes of interest were examined by real-time quantitative PCR using an iCycler IQ System and the iQ SYBR green supermix (Bio-Rad). […] Results are presented as a starting quantity of target cDNA (picograms) per microgram of total RNA. […]

[2] = tested on: vascular smooth muscle cells and primary human monocytes; conditions: stimulated in culture for 6 hours, Magnone et al., 2009; cited from earlier work
[3] = tested on: vascular cell adhesion molecule 1 (VCAM-1); test: Aortic gene expression by real-time RT-PCR: VCAM-1; format: in vivo, mice; conditions: P=0.07
Experimental: (§2) FIG. 6 are graphs showing that ABA decreases immune cell infiltration in aortas of ApoE−/− mice and reduces pro-inflammatory gene expression. ApoE −/− mice were fed high fat diets created with or without 100 mg/kg diet racemic abscisic acid (ABA). (A) Infiltration of F4/80^+CD11b^+ macrophages and CD4^+ T-cells into the aorta were assessed with flow cytometry. Gene expression in the aorta of pro-inflammatory markers (B) vascular cell adhesion molecule 1 (VCAM-1), (C) monocyte chemoattractant protein 1 (MCP-1), (D) E-selectin, (F) peroxisome proliferator-activated receptor γ (PPAR γ), and (G) CD36 were measured as a ratio to the housekeeping gene β-actin. (H) MCP-1 protein concentrations (pg/mL) were measured by ELISA. Data were analyzed as a completely randomized design.
(§3) Total RNA was isolated from aortas using the RNA isolation Minikit (Qiagen) according to the manufacturer's instructions. […] Each gene amplicon was purified with the MiniElute PCR Purification Kit (Qiagen) and quantitated on an agarose gel by using a DNA mass ladder (Promega). […]
as §1

[4] = tested on: human aorta endothelial cells (HAECs); test: Intracellular cAMP in human aorta endothelial cells; format: cell-based; conditions: tested 0.01-10 μM
Experimental: FIG. 7 are graphs showing effect of ABA on (A) cAMP; (B) NO; and (C) eNOS. (A) Confluent human aortic endothelial cell (HAEC) were serum-starved using HBSS buffer for 30 min and then stimulated with various concentrations of ABA (0, 0.01, 0.1, 1, 10 μM) or Forskolin (1 μM) for […]. After removing supernatant, cells were lysated with 0.1 M HCL for 20 minutes to measure non-acetylated cAMP. (B) Confluent HAEC were serum-starved using HBSS buffer for 30 minutes and then stimulated with various concentrations of ABA (0, 0.001, 0.01, 0.1, 1, 10 μM) for 15 minutes to measure NO. Results (pmol/ml) from four independent experiments are depicted. […]
Confluent human aorta endothelial cells (HAECs) at passage 3 maintained with EGM-2 media (Clonetics, Walkerville, Md.) were adapted to Hank's buffered salt solution buffer for 30 min and then stimulated with ABA or forskolin (1 μM) for 10 min. For intracellular assessment of cAMP, the cells were harvested into 0.1 M HCL and the lysates were obtained by sonication and centrifugation. cAMP the lysates were determined by using an EIA kit (Assay Designs, Ann Arbor, Mich.) and results were obtained from four independent experiments. Nitric oxide levels in the cell culture supernatants were determined with the Nitric Oxide Assay Kit according to manufacturer's instructions (Assay Designs). […]

[5] = tested on: peroxisome proliferator-activated receptor γ (PPAR γ); test: Aortic gene expression by real-time RT-PCR: PPAR γ and responsive genes; format: in vivo, mice; conditions: day 84
Experimental: as §2, §3, §1

CC1=CC(=O)CC(C)(C)C1(O)/C=C/C(C)=C\C(=O)O (racemic) [ABA, abscisic acid]
Aortic expression of 15-lipoxygenase mRNA vs control [1]: significantly elevated
MCP-1 [2]: increases
MMP-9 [2]: increases
VCAM-1 mRNA expression in the aortic roots vs control [3]: reduced, though not to statistical significance
Dose inducing maximal effect on intracellular cAMP [4]: 1 µM
Lowest dose significantly increasing intracellular cAMP concentrations [4]: 0.1 µM
Expression of PPAR γ or its responsive genes in the aorta vs control [5]: no differences
